Reference: patent US5321030A, “Creatine analogs having antiviral activity” (priority 1991, dated 1994)
Values after ≈ are worked out from the molar mass of the structure shown. Like-named read-outs stand apart in the source and are kept apart here.

Legend:
[1] = test system: Guinea Pig Cytomegalovirus, Strain 22122; assay: CPE reduction assay, guinea pig cytomegalovirus in GPE cells; format: cell-based; parameters: TI50 (CD50 ÷ ED50): unit not given here; conditions: for Average CPE: virus controls 4.0
HCMV, strain AD-169 = assay: Plaque reduction assay, HCMV strain AD-169; format: cell-based, Human Cytomegalovirus; parameters: TI50 (CD50 ÷ ED50): unit not given here; conditions: for EC50: read-out: ED50 (the source's name)
[2] = test system: HCMV, strain C8704 (DHPG resistant); assay: microbe, parasite or virus in culture; format: cell-based, Human Cytomegalovirus; parameters: TI50 (CD50 ÷ ED50): unit not given beside the values; conditions: for # Plaques: virus control 91.0 ± 8.4
[3] = test system: HCMV, strain C8805-37 (DHPG resistant); assay: microbe, parasite or virus in culture; format: cell-based, Human Cytomegalovirus; parameters: TI50 (CD50 ÷ ED50): unit not given beside the values; conditions: for # Plaques: virus control 11.5 ± 2.1
[4] = Cytotoxicity in plaque reduction assay, MRC-5 cells; format: cell-based, human; conditions: human, mrc-5 cells, read-out: CD50 (the source's name)
Procedure: (§1) Cytotoxicity was determined by examination of cells (located away from plaques) in infected wells which had been treated with drug.

[5] = Cytotoxicity in plaque reduction assay, Hs68 cells; format: cell-based; conditions: human, Table 5, previous data, read-out: CD50 (the source's name)
Procedure: as §1

[6] = test system: Varicella-Zoster Virus, strain Oka; assay: microbe, parasite or virus in culture; format: cell-based; parameters: TI50 (CD50 ÷ ED50): unit not given beside the values
[7] = Cytotoxicity in plaque reduction assay, CV-1 cells; format: cell-based, African Green Monkey; conditions: monkey, Table 9B, read-out: CD50 (the source's name)
in vitro = conditions: guinea pig, gpe cells
[8] = Human betaherpesvirus 5, MRC5, DHPG 1.0 μg/ml, read-out: % Reduction
[9] = Human betaherpesvirus 5, MRC5, DHPG 3.2 μg/ml, read-out: % Reduction
[10] = Human betaherpesvirus 5, MRC5, DHPG 10 μg/ml, read-out: % Reduction
[11] = Human betaherpesvirus 5, MRC5, DHPG 32 μg/ml, read-out: % Reduction
[12] = Human alphaherpesvirus 3, CV-1, read-out: % Reduction
[13] = Human alphaherpesvirus 3, MRC5, read-out: % Reduction

For `Nc1nc(O)c2ncn(COC(CO)CO)c2n1` [DHPG, dihydroxypropoxymethylguanine, reference compound], the EC50 ([1]; Caviid betaherpesvirus 2, GPE cells, Table 3, read-out: ED50 (the source's name)) was 18.4 µg/mL (≈ 72.1 µM), the “Average CPE” value ([1]; DHPG 1.0 μg/ml) was 4.0 and the “Average CPE” value ([1]; DHPG 3.2 μg/ml) was 4.0. For the same compound, the “Average CPE” value ([1]; DHPG 10 μg/ml) was 3.5, the “Average CPE” value ([1]; DHPG 32 μg/ml) was 0.7 and the “Average CPE” value ([1]; DHPG 100 μg/ml) was 0. For the same compound, the “Average CPE” value ([1]; DHPG 320 μg/ml) was 0, the “Average CPE” value ([1]; DHPG 1000 μg/ml) was 0 and the “TI50 (CD50 ÷ ED50)” value ([1]; GPE cells, Table 3) was > 54. For the same compound, the “TI50 (CD50 ÷ ED50)” value (HCMV, strain AD-169; Hs-68 cells, Table 5) was > 526, the “# Plaques” value (HCMV, strain AD-169; Hs-68 cells, DHPG 1.0 μg/ml, virus control 74.2 ± 8.6) was 68.5 and the “# Plaques” value (HCMV, strain AD-169; Hs-68 cells, DHPG 3.2 μg/ml, virus control 74.2 ± 8.6) was 7. For the same compound, the “# Plaques” value (HCMV, strain AD-169; Hs-68 cells, DHPG .32 μg/ml, virus control 74.2 ± 8.6) was 100.5, the EC50 (HCMV, strain AD-169; Human betaherpesvirus 5, AD169, Hs68, Hs-68 cells, Table 5) was 1.9 µg/mL (≈ 7.44 µM) and the EC50 (HCMV, strain AD-169; Human betaherpesvirus 5, AD169, MRC5, MRC-5 cells, Table 4) was 3.7 µg/mL (≈ 14.5 µM). For the same compound, the “TI50 (CD50 ÷ ED50)” value (HCMV, strain AD-169; MRC-5 cells, Table 4) was > 27, the “# Plaques” value (HCMV, strain AD-169; MRC-5 cells, DHPG 3.2 μg/ml, virus control 26.4 ± 5.2) was 15 and the “# Plaques” value (HCMV, strain AD-169; MRC-5 cells, DHPG 10 μg/ml, virus control 26.4 ± 5.2) was 0.5. The “# Plaques” value (HCMV, strain AD-169; MRC-5 cells, DHPG 32 μg/ml, virus control 26.4 ± 5.2) was 0, the “# Plaques” value (HCMV, strain AD-169; MRC-5 cells, DHPG 100 μg/ml, virus control 26.4 ± 5.2) was 0 and the “# Plaques” value ([2]; DHPG 1.0 μg/ml) was 92.5. The “# Plaques” value ([2]; DHPG 3.2 μg/ml) was 85, the “# Plaques” value ([2]; DHPG 10 μg/ml) was 80 and the “# Plaques” value ([2]; DHPG 32 μg/ml) was 91. The inhibition at 1 µg/mL [2, 8] was 0%, the inhibition at 3.2 µg/mL [2, 9] was 0% and the inhibition at 10 µg/mL [2, 10] was 0%. The inhibition at 32 µg/mL [2, 11] was 41%, the EC50 ([2]; Human betaherpesvirus 5, MRC5, MRC-5 cells, Table 6, read-out: ED50 (the source's name)) was > 32 µg/mL and the EC50 ([2]; Human betaherpesvirus 5, MRC5, MRC-5 cells, Table 6, read-out: ED50, approximate value in parentheses) was ~41 µg/mL (≈ 161 µM). For the same compound, the “TI50 (CD50 ÷ ED50)” value ([2]; MRC-5 cells, Table 6) was > 24, the “# Plaques” value ([3]; DHPG 1.0 μg/ml) was 13 and the “# Plaques” value ([3]; DHPG 3.2 μg/ml) was 6.5. For the same compound, the “# Plaques” value ([3]; DHPG 10 μg/ml) was 10, the “# Plaques” value ([3]; DHPG 32 μg/ml) was 4.5 and the inhibition at 1 µg/mL [3, 8] was 0%. The inhibition at 3.2 µg/mL [3, 9] was 43%, the inhibition at 10 µg/mL [3, 10] was 0% and the inhibition at 32 µg/mL [3, 11] was 61%. For the same compound, the EC50 ([3]; Human betaherpesvirus 5, MRC5, MRC-5 cells, Table 7, read-out: ED50 (the source's name)) was 11 µg/mL (≈ 43.1 µM), the “TI50 (CD50 ÷ ED50)” value ([3]; MRC-5 cells, Table 7) was > 91 and the CC50 ([4]; Table 4) was > 100 µg/mL. The CC50 ([4]; Table 6, previous data) was > 1000 µg/mL, the CC50 ([4]; Table 7, previous data) was > 1000 µg/mL and the CC50 ([4]; Table 9A, previous data) was > 1000 µg/mL. For the same compound, the CC50 [5] was > 1000 µg/mL, the “# Plaques” value ([6]; CV-1 cells, DHPG 3.2 μg/ml, virus control 70.25 ± 6.9) was 77 and the “# Plaques” value ([6]; CV-1 cells, DHPG 10 μg/ml, virus control 70.25 ± 6.9) was 63. For the same compound, the inhibition at 3.2 µg/mL [6, 12] was 0%, the inhibition at 10 µg/mL [6, 12] was 10% and the EC50 ([6]; Human alphaherpesvirus 3, CV-1, read-out: ED50) was > 10 µg/mL. It also gave an inhibition at 0.32 µg/mL [6, 13] of 0%, an inhibition at 1 µg/mL [6, 13] of 0% and an inhibition at 3.2 µg/mL [6, 13] of 0%. For the same compound, the inhibition at 10 µg/mL [6, 13] was 62%, the EC50 ([6]; Human alphaherpesvirus 3, MRC5, read-out: ED50) was 8 µg/mL (≈ 31.3 µM) and the “TI50 (CD50 ÷ ED50)” value ([6]; MRC-5 cells, Table 9A) was > 125. The “# Plaques” value ([6]; MRC-5 cells, DHPG 0.32 μg/ml, virus control 32.7 ± 9.3) was 24.5, the “# Plaques” value ([6]; MRC-5 cells, DHPG 1.0 μg/ml, virus control 32.7 ± 9.3) was 37 and the “# Plaques” value ([6]; MRC-5 cells, DHPG 3.2 μg/ml, virus control 32.7 ± 9.3) was 25. The “# Plaques” value ([6]; MRC-5 cells, DHPG 10 μg/ml, virus control 32.7 ± 9.3) was 12.5, the CC50 [7] was > 10 µg/mL and the CC50 (in vitro) was > 1000 µg/mL.
